Laboratory results taken from patent US20030100605A1, “Methods of treating cancer with angiogenesis inhibitors” (priority 2001, published 2003).

Key:
[1] = tested on: human hematopoietic progenitors; assay: In vitro bone marrow culture, colony formation in methylcellulose; assay type: cell-based
Procedure: In vitro bone marrow culture. Light density cells separated by density gradient centrifugation (Lymphocyte Separation Medium, ICN Pharmaceutical, Costa Mesa, Calif.) from normal human BM donors were plated in methylcellulose medium with recombinant cytokines. This medium, MethoCult GF (Stem Cell Technologies, Vancouver, Canada), contains stem cell factor 50 ng/ml, GM-CSF 10 ng/ml, IL-3 10 ng/ml and erythropoietin 3 units/ml. 5×10^4 BM cells/dish were cultured with TNP-470 at concentrations ranging from 1 mcg/ml to […], with duplicate cultures at each dose. The plates were scored after 14 days of culture, enumerating colony-forming unit granulocyte/macrophage (CFU-GM), CFU-mix, CFU-erythrocyte and burst-forming unit erythrocyte (CFU-E and BFU-E).
Effect of TNP-470 on bone marrow colony-forming cells. Although hematologic toxicity has not been described in the TNP-470 phase I trials (24, 25), there is one report of in vitro evidence of BM toxicity (16). In order to confirm this finding, we investigated the effect of relatively high concentrations of TNP-470 (0-100 μg/ml) on growth of human hematopoietic progenitors in standard methylcellulose culture. […] Although this assay is not necessarily predictive of in vivo BM toxicity, the result emphasizes the need to develop a pre-clinical model of stem cell transplantation to assess the effect of AIs on engraftment.

[2] = Survival and toxicity after TBI and stem cell rescue in the mouse stem cell transplant model; assay type: in vivo, FVB mice
From the text: Donors, recipients and preparative regimen. Transgenic mice expressing a human IgM Tg in the FVB background were used as the donor source of bone marrow stem cells for transplantation. The FVB strain of inbred mice is frequently utilized in the generation of transgenic animals. Marrow was collected from Tg+ mice from femurs flushed with sterile PBS. Recipients were FVB mice (Jackson Laboratory, Bar Harbor, Me.) or Tg negative littermates of the Tg positive donors, treated in groups of 5-8 animals/intervention. Recipients received total body irradiation (TBI) in an M38-1 Irradiator (Isomedix) at a dose rate of 2.7 Gy/min in a mixed/split fashion with a 3 hour interfraction interval to allow a higher dose of radiation without significant gastrointestinal toxicity. After completion of TBI, mice received stem cells via tail vein injection. The mice were maintained in a temperature controlled humidified area in autoclaved microisolator cages and fed ad libitum and provided acidified water. Mice were assessed three times weekly after stem cell infusion. These studies were approved by the Animal Care and Use Committee of the Children's Hospital of Philadelphia.
(§1) Compound (drug). TNP-470 was provided by TAP Pharmaceuticals (Deerfield, Ill.). Prior to use, TNP-470 was reconstituted in sterile saline, aliquoted and stored at −80° C. TNP-470 was used at a dose of 20-100 mg/kg given SQ three times per week beginning at day 0 or at a dose of 10-20 mg/kg/week given by continuous intraperitoneal infusion using an Alzet infusion pump (Alza Co., Palo Alto, Calif.). The continuous TNP-470 infusion began on the day prior to transplant to allow for pump implantation (see below).
Effect of TNP-470 on engraftment. Several dose levels of TNP-470 were explored to assess any effect on BM engraftment and engraftment kinetics. Immediately following lethal irradiation and tail vein injection of Tg+ BM cells, recipient mice were given either TNP-470 or saline starting on day 0. Dose schedules were also varied from a single dose at the time of stem cell infusion to an initial dose on day 0 followed by administration of TNP-470 or saline 3 times a week (Table 3). Mice were initially sacrificed on days 28-32 at all dose levels. Comparative kinetics were then further analyzed by sacrificing groups of mice at day 21, day 24, and day 28 at dose level 3.

[3] = Recovery of peripheral blood counts and marrow cellularity after stem cell rescue; assay type: in vivo, FVB mice
Procedure: as §1
Alzet infusion pump placement. Using sterile technique following anesthesia, a 1 cm midline abdominal incision was made and 14 day Alzet micro-osmotic pumps (0.25 μl/hr, model 1002) containing either TNP-470 or saline were placed intraperitoneally. The peritoneum and skin were then secured separately using 4.0 vicryl suture. The animals were allowed to recover overnight and then subjected to TBI and stem cell infusion on the following day.
Analysis of engraftment. […] Following cervical dislocation, BM and splenocytes were collected from recipient mice. Analysis was performed after red cell lysis with NH4Cl. For flow cytometric analysis of lymphoid engraftment, Tg IgM expressed only in B cells derived from the donor was detected by antibodies recognizing human IgM (RAHM; Jackson ImmunoResearch, West Grove, Pa.) and mouse CD45R (B220, Pharmingen, Torreyana, Calif.) in a two-color protocol on a FACS Caliber cytometer (Becton-Dickinson, Franklin Lakes, N.J.). Splenocytes from untransplanted Tg− and Tg+ mice provided negative and positive controls, respectively. Lymphoid engraftment was defined as the percentage of lymphoid cells in spleen and BM that were B220/RAHM positive. In addition to flow cytometry, genomic DNA from tail snips, blood, BM, and splenocytes was analyzed by PCR for the presence of the transgene, using a procedure and primers previously reported (15). The transgene was detectable by PCR in all donor-derived cells in the recipient, while the tail snips of Tg− mice provided a negative control. Genomic DNA was also isolated from splenic and peripheral blood T cells. Splenic T cells were isolated using the Cellect T isolation column (Biotex, Edmonton, Canada) according to the manufacturer's protocol. Peripheral blood T cells were sorted on the FACS Vantage (Becton-Dickson) after staining with antibodies recognizing mouse CD3 (Pharmingen). Recovery of peripheral blood counts was also analyzed. Blood was collected from cardiac puncture and placed in EDTA tubes (Becton-Dickson). Analysis was then performed with a HemeVet (CDC Technologies) instrument using mouse-specific parameters. Hemoglobin was measured and white blood cells (WBC) and platelets were enumerated.

neuroblastoma cell lines = details: first administered ten days after inoculation with two different neuroblastoma cell lines; cited from earlier work
[4] = cited from earlier work

SMILES: CO[C@@H]1[C@H](OC(=O)NC(=O)CCl)CC[C@@]2(CO2)[C@H]1[C@]1(C)O[C@@H]1CC=C(C)C [TNP-470]
- inhibition at 4 µg/mL ([1]; Homo sapiens, 336 h, TNP-470 4 μg/ml, myeloid and erythroid colonies, 14 days culture): > 80%
- inhibition of colony-forming cells ([1]; higher doses than 4 μg/ml (range 0-100 μg/ml)): complete inhibition
- Overall survival ([2]; all dose levels, after stem cell rescue): 66%
- survival rate ([2]; dose level 1 (20 mg/kg on day 0 and then thrice weekly), at completion of the experiment): 57%
- survived to experiment completion ([2]; dose level 2 (100 mg/kg on day 0 only), day 28-32): 71%
- weight loss ([2]; dose level 4 (100 mg/kg 3×/week)): greater weight loss than the control animals
- skin irritation ([2]; dose level 4 (100 mg/kg 3×/week), SQ): evidence of skin irritation at the injection sites
- WBC ([3]; continuous infusion): 6300 µL⁻¹
- hemoglobin or platelet recovery versus control ([3]; continuous infusion 10 mg/kg/week): no significant differences
- marrow cellularity versus controls ([3]; day 28, dose level 3, femurs): no difference
- WBC ([3]; day 28 post BMT, continuous infusion IP via Alzet pump at 10 mg/kg/wk, mean ± SEM): 6.3 ± 0.4 10^3/μL
- WBC ([3]; day 28 post BMT, intermittent dosing, dose level 3, SQ three times/wk, mean ± SEM): 3.6 ± 0.7 10^3/μL
- hemoglobin or platelet count versus control ([3]; intermittent (bolus) dosing): No statistical differences
- mean white blood cell count ([3]; intermittent TNP-470): 3600 µL⁻¹
- effect on primary tumor and metastases (neuroblastoma cell lines): decreased the primary tumor volume and the size and number of lymph node and liver metastases
- hematologic toxicity in Phase I trials ([4]; Phase I trials): no significant hematologic toxicity
- maximal tolerated dose (MTD) ([4]; one-hour intravenous infusions, three times a week, intermittent schedule): 60 mg/m^2
